Measured values reported in paper PMC6150025, “Novel Mixed-Type Inhibitors of Protein Tyrosine Phosphatase 1B. Kinetic and Computational Studies” (Molecules : A Journal of Synthetic Chemistry and Natural …, 2017).

Tests used:
[1] = target: T1, PTP1B (Homo sapiens, UniProt P18031); experiment: PTP1B enzymatic inhibition assay (pNPP substrate); assay type: biochemical; settings: for inhibition at 200 µM: 200 µM compound, pNPP 50 mM, 30 min, 37 °C; for % Inhibition (200 µM): Table S1, 200 µM compound
T1 construct: encodes for PTP1B (residues 1–321); inferred from the pET28A vector, NdeI/BamHI cloning and Ni-agarose purification) (N); made in house; host or cells: E. coli BLR
T1 sequence (P18031 1-321): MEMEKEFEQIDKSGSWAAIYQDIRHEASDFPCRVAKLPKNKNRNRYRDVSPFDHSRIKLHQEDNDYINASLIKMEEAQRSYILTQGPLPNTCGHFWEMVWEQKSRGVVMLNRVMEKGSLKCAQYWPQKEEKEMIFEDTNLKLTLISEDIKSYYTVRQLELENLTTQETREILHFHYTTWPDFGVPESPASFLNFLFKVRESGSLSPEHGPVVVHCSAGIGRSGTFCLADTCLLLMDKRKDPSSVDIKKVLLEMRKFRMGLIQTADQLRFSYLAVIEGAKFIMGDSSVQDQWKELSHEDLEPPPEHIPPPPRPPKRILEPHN
Method: The PTP1B activity was measured based on the Goldstein method. The assay was performed with a final reaction volume of 500 µL in HEPES buffer (50 mM HEPES, 1mM DTT, 2 mM EDTA and 150 mM NaCl, pH 7.0), DMSO (10%) and p-nitrophenol phosphate (pNPP) as substrate (50 mM), the reaction was started with the PTP1B (1.5 µg/mL). After 30 min of incubation at 37 °C, the reaction was stopped by the addition of 500 µL of NaOH 5N reading the absorbance at 405 nm. The number of hydrolyzed moles of pNPP was determined using the molar extinction coefficient of the product pNP (18,500 M^−1 cm^−1).
Inhibition assays were performed under the above described conditions, adding to the reaction each one of the molecules at a final concentration of 200 µM. The concentration that inhibits 50% (IC50) of the PTP1B activity was determined through curves at different concentration of each compound, adjusting the data to the equation reported elsewhere. The inhibition type and constant were obtained by the measurement of the initial velocities of hydrolysis varying the substrate concentration in a range of 2–30 µM, in absence or presence of fixed concentrations of each inhibitor. For compound 1 the concentrations used were 3, 6, 10 and 20 µM; in the case of compound 2 were 2, 4, 6, 8, and 10 µM; and for compound 3 were 20, 50, 70 and 90 µM. The experimental data were analyzed through the Lineweaver-Burk plot using the software Sigma Plot V12.3 (Systat Software, Inc., San Jose, CA, USA).

melting point	inhibition at 200 µM [1]	% Inhibition (200 µM) [1]	Compound
237.5 to 238.9 °C	70%		CC(=O)Nc1nc2cc(Oc3cccc(Cl)c3Cl)c(Cl)cc2n1C [Compound 9, N-[6-Chloro-5-(2,3-dichlorophenoxy)-1-methyl-1H-benzimidazol-2-yl]acetamide]
	84%		CCCc1cc(=O)oc2cc(OC(C)C(=O)NNS(=O)(=O)c3cccc(C(F)(F)F)c3)ccc12 (centres unmarked) [Compound 6, N′1-{2-[(2-oxo-4-propyl-2H-chromen-7-yl)oxy]propanoyl}-3-(trifluoromethyl)benzene-1-sulfonohydrazide]
		63%	O=C(Nc1ccc(COc2ccccc2)cc1)Oc1ccccc1N1CCOCC1 [2-morpholinophenyl N-[4-(phenoxymethyl)phenyl]carbamate]
		63%	O=C(CSc1nc2cc(Oc3cccc4ccccc34)c(Cl)cc2[nH]1)Nc1ncc([N+](=O)[O-])s1 [2-({6-chloro-5-[(naphthalen-1-yl)oxy]-1H-benzimidazol-2-yl}sulfanyl)-N-(5-nitro-1,3-thiazol-2-yl)acetamide]
	65%		C[S+]([O-])c1nc2cc(Cl)c(Oc3cccc4ccccc34)cc2[nH]1 (centres unmarked) [Compound 10]
		54%	CC1C(=NO)CC(c2ccc([N+](=O)[O-])cc2)NC1c1ccc([N+](=O)[O-])cc1 (centres unmarked) [3-methyl-2,6-bis(4-nitrophenyl)tetrahydropyridin-4(1H)-one oxime]
		50%	COC(=O)c1cc(S(=O)(=O)NCC2CN(Cc3ccccc3)CN(Cc3ccccc3)C2)oc1C [methyl 5-({[(1,3-dibenzylhexahydro-5-pyrimidinyl)methyl]amino}sulfonyl)-2-methyl-3-furoate]
		64%	COC(=O)c1cccc2nc(Cc3ccc([N+](=O)[O-])cc3)sc12 [methyl 2-[(4-nitrophenyl)methyl]-1,3-benzothiazole-7-carboxylate]

Compound	melting point	inhibition at 200 µM [1]	% Inhibition (200 µM) [1]
Cn1c(SCCn2ccnc2)nc2ccc(Cl)cc21 [6-chloro-2-{[2-(1H-imidazol-1-yl)ethyl]sulfanyl}-1-methyl-1H-benzimidazole]			32%
Cc1cc(-c2nn(C)c(=O)c3ccccc23)cc(C)c1OCC(=O)NNC(=O)Nc1ccccc1 [N1-phenyl-2-{2-[2,6-dimethyl-4-(3-methyl-4-oxo-3,4-dihydrophthalazin-1-yl)phenoxy]acetyl}hydrazine-1-carboxamide]			52%
